Experimental data published in patent US12509460B2 (Skyhawk Therapeutics, Inc., priority 2019, dated 2025).
Like-named read-outs stand apart in the source and are kept apart here.

Columns and labels:
MDR1 (P-gp) = test: Blood-brain-barrier (BBB) penetration potential via MDCK-MDR1 permeability assay; conditions: dog; for Papp A→B at 120 min, 5 μM: MDCK-MDR1, pH 7.4, MDCK-MDR1: Papp A-B; for Papp B→A at 120 min, 5 μM: MDCK-MDR1, pH 7.4, MDCK-MDR1: Papp B-A
[1] = test system: MDR1-MDCK cell monolayers; test: as above
MDR1 = test: as above; conditions: dog, MDCK-MDR1, pH 7.4, MDCK-MDR1: Efflux
[2] = test system: SMN protein in spinal muscular atrophy (SMA) patient fibroblasts (GM03813, Coriell); test: SMN protein assay, Mesoscale Discovery (MSD); format: cell-based, human; conditions: for EC50: read-out: SMN2 protein EC50
Procedure, shortened: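 SMA patient fibroblasts (GM03813) seeded at 7000 cells/well and exposed to compound at 2.5 μM to 0.6 nM for 48 hours. Lysates assayed for SMN by MSD immunoassay, with absolute SMN amount calculated from a per-plate SMN standard curve (1 μg/ml to 19.5 pg/ml).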

[3] = test system: SMN FL and SMN Δ7 in spinal muscular atrophy (SMA) patient fibroblasts (GM03813, Coriell); test: Quantitative splicing assay (SMN), qPCR; format: cell-based, human; conditions: Homo sapiens, Fibroblast, 24 h, 24 h, read-out: SMN2 Splicing FL EC50
Procedure: Spinal muscular atrophy (SMA) patient fibroblasts (GM03813, Coriell) are plated in 96-well plates at 50,000 cells/well. […] Treated cells are lysed and cDNA synthesized using the Fast Advanced Cells-to-Ct kit (Thermofisher A35378) according to the manufacturer's instructions. 2 μL of each cDNA are used in qPCR reactions. […] Reactions are run in a Quant Studio 6 qPCR instrument with default settings.

[4] = test system: mHTT protein in GM04724 (CAG 70/20) Huntington's disease patient lymphoblast cells; test: mHTT protein assay, 2B7-MW1 assay via Mesoscale Discovery (MSD); format: cell-based, human
Procedure, shortened: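 Patient lymphoblasts treated 48 h with compound from 10 μM to 0.6 nM. mHTT quantified by MSD 2B7-MW1 immunoassay, whose signal depends on polyQ expansion and HTT size. Viability measured on a replicate plate by CellTiter Glo.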

[5] = SMA patient fibroblasts (GM03813), 48 hours
[6] = SMA patient fibroblasts (GM03813)
[7] = GM04724 (CAG 70/20) Huntington's disease patient lymphoblasts
[8] = SMA patient fibroblasts GM03813, 48 hours, MSD
[9] = SMA patient fibroblasts GM03813, 24 h, qPCR
[10] = GM04724 Huntington's disease patient lymphoblasts

SMILES | Papp A→B at 120 min, 5 μM (MDR1 (P-gp); A-B) [×10⁻⁶ cm/s] | Papp B→A at 120 min, 5 μM (MDR1 (P-gp); B-A) [×10⁻⁶ cm/s] | MDCK-MDR1: % Recov A-B ([1]; A-B) [%] | MDCK-MDR1: % Recov B-A ([1]; B-A) [%] | efflux ratio at 120 min, 5 μM (MDR1) | EC50 [2, 5] [nM] | EC50 [3, 6] [nM] | EC50 [4, 7] [nM] | Papp A→B at 120 min, 5 μM (MDR1 (P-gp); A-B direction) [×10⁻⁶ cm/s] | Papp B→A at 120 min, 5 μM (MDR1 (P-gp); B-A direction) [×10⁻⁶ cm/s] | MDCK-MDR1: % Recov A-B ([1]; A-B direction) [%] | MDCK-MDR1: % Recov B-A ([1]; B-A direction) [%] | efflux ratio at 120 min, 5 μM (MDR1; efflux ratio) | EC50 [2, 8] [nM] | EC50 [3, 9] [nM] | EC50 [4, 10] [nM] | SMN2 protein EC50 [2, 8] | mHTT protein EC50 [4, 7]
CN(c1ccc(-c2cc3c(=O)n(C)cnc3cc2O)nn1)[C@H]1C[C@@H]2CC[C@H]([C@H]1F)N2C [Compound 102B, 6-(6-(((1R,2R,3S,5S)-2-fluoro-8-methyl-8-azabicyclo[3.2.1]octan-3-yl)(methyl)amino)pyridazin-3-yl)-7-hydroxy-3-methylquinazolin-4(3H)-one] | 1.63 | 48.1 | 91 | 91 | 30 | 16 to 50 | 101 to 500 | 51 to 100 |  |  |  |  |  |  |  |  |  | 
CN(c1ccc(-c2ccc(-n3ccnc3)cc2O)nn1)[C@@H]1C[C@H]2CCC[C@H](N2)[C@@H]1F [Compound 11A, 2-(6-(((1S,2S,3R,5R)-2-fluoro-9-azabicyclo[3.3.1]nonan-3-yl)(methyl)amino)pyridazin-3-yl)-5-(1H-imidazol-1-yl)phenol] |  |  |  |  |  |  |  |  | 2.76 | 53.2 | 79 | 90 | 19 | 0.01 to 15 | 51 to 100 | 0.01 to 15 |  | 
CN(c1ccc(-c2ccc(-n3ccnn3)cc2O)nn1)[C@@H]1C[C@H]2CC[C@H](N2)[C@@H]1F [Compound 61A, 2-(6-(((1S,2S,3R,5R)-2-fluoro-8-azabicyclo[3.2.1]octan-3-yl)(methyl)amino)pyridazin-3-yl)-5-(1H-1,2,3-triazol-1-yl)phenol] |  |  |  |  |  |  |  |  | 4.29 | 60.3 | 91 | 88 | 14 | 0.01 to 15 | 16 to 50 | 16 to 50 |  | 
CN(c1ccc(-c2ccc(C#N)cc2O)nn1)[C@@H]1C[C@H]2CC[C@H](N2)[C@@H]1F [Compound 38A, 4-(6-(((1S,2S,3R,5R)-2-fluoro-8-azabicyclo[3.2.1]octan-3-yl)(methyl)amino)pyridazin-3-yl)-3-hydroxybenzonitrile] |  |  |  |  |  |  |  |  | 13 | 39.2 | 83 | 85 | 3 |  | 16 to 50 | 101 to 500 | E (501 ≤ E ≤ 10.000) | 
CN(c1ccc(-c2ccc(-n3cnc(C#N)c3)cc2O)nn1)[C@H]1C[C@@H]2CC[C@@H](N2)[C@H]1F [Compound 69B, 1-(4-(6-(((1R,2R,3S,5S)-2-fluoro-8-azabicyclo[3.2.1]octan-3-yl)(methyl)amino)pyridazin-3-yl)-3-hydroxyphenyl)-1H-imidazole-4-carbonitrile] |  |  |  |  |  |  |  |  | 1.51 | 52.3 | 88 | 90 | 35 | 0.01 to 15 | 51 to 100 | 16 to 50 |  | 
CN(c1ccc(-c2ccc(-n3cnc(C#N)c3)cc2O)nn1)[C@@H]1C[C@H]2CCC[C@H](N2)[C@@H]1F [Compound 63A, 1-(4-(6-(((1S,2S,3R,5R)-2-fluoro-9-azabicyclo[3.3.1]nonan-3-yl)(methyl)amino)pyridazin-3-yl)-3-hydroxyphenyl)-1H-imidazole-4-carbonitrile] |  |  |  |  |  |  |  |  | 1.5 | 46 | 76 | 91 | 31 | 0.01 to 15 | 16 to 50 | 51 to 100 |  | 
CN(c1ccc(-c2cc(F)c(-n3ccnn3)cc2O)nn1)[C@H]1C[C@@H]2CC[C@H]([C@H]1F)N2C [Compound 103B, 4-fluoro-2-(6-(((1R,2R,3S,5S)-2-fluoro-8-methyl-8-azabicyclo[3.2.1]octan-3-yl)(methyl)amino)pyridazin-3-yl)-5-(1H-1,2,3-triazol-1-yl)phenol] | 12.6 | 49.1 | 95 | 94 | 4 | 51 to 100 | 101 to 500 |  |  |  |  |  |  |  |  |  |  | E (501 ≤ E ≤ 10.000)
CN(c1ccc(-c2cc3nccnc3cc2O)nn1)[C@@H]1C[C@H]2CC[C@H](N2)[C@@H]1F [Compound 88A, 7-(6-(((1S,2S,3R,5R)-2-fluoro-8-azabicyclo[3.2.1]octan-3-yl)(methyl)amino)pyridazin-3-yl)quinoxalin-6-ol] |  |  |  |  |  |  |  |  | 4.84 | 45.7 | 85 | 99 | 9 | 16 to 50 | 101 to 500 | 51 to 100 |  | 
CN(c1ccc(-c2cc3ncn(CC(F)(F)F)c(=O)c3cc2O)nn1)[C@@H]1C[C@H]2CCC[C@H](N2)[C@@H]1F [Compound 58A, 7-(6-(((1S,2S,3R,5R)-2-fluoro-9-azabicyclo[3.3.1]nonan-3-yl)(methyl)amino)pyridazin-3-yl)-6-hydroxy-3-(2,2,2-trifluoroethyl)quinazolin-4(3H)-one] |  |  |  |  |  |  |  |  | 0.36 | 71.4 | 86 | 89 | 201 | 0.01 to 15 | 101 to 500 | 101 to 500 |  | 
Cc1cc(=O)c2cc(-c3ccc(N(C)[C@H]4C[C@@H]5CC[C@H]([C@H]4F)N5C)nn3)c(O)cc2o1 [Compound 100B, 6-(6-(((1R,2R,3S,5S)-2-fluoro-8-methyl-8-azabicyclo[3.2.1]octan-3-yl)(methyl)amino)pyridazin-3-yl)-7-hydroxy-2-methyl-4H-chromen-4-one] | 9.57 | 38.7 | 79 | 80 | 4 | 16 to 50 | 16 to 50 | 51 to 100 |  |  |  |  |  |  |  |  |  | 
CN(c1ccc(-c2ccc(-n3cnc(C#N)c3)cc2O)nn1)[C@H]1C[C@@H]2CCC[C@@H](N2)[C@H]1F [Compound 63B, 1-(4-(6-(((1R,2R,3S,5S)-2-fluoro-9-azabicyclo[3.3.1]nonan-3-yl)(methyl)amino)pyridazin-3-yl)-3-hydroxyphenyl)-1H-imidazole-4-carbonitrile] |  |  |  |  |  |  |  |  | 2.31 | 44.9 | 72 | 96 | 19 | 0.01 to 15 | 16 to 50 | 16 to 50 |  | 
CN(c1ccc(-c2cc3cccnc3cc2O)nn1)[C@@H]1C[C@H]2CC[C@H](N2)[C@@H]1F [Compound 74A, 6-(6-(((1S,2S,3R,5R)-2-fluoro-8-azabicyclo[3.2.1]octan-3-yl)(methyl)amino)pyridazin-3-yl)quinolin-7-ol] |  |  |  |  |  |  |  |  | 3.13 | 44.5 | 69 | 81 | 14 | 16 to 50 | 101 to 500 | 16 to 50 |  | 
